Results taken from patent publication US20260306639A1, “DEGRADER FOR DECOMPOSING CMET PROTEIN, AND PHARMACEUTICAL COMPOSITION COMPRISING SAME” (INNOCURE THERAPEUTICS, INC., priority 2022, published 2026).

Each compound was assayed on c-MET (assay: c-MET protein degradation (Simple Western), EBC-1 cells). Details: EBC-1 lung cancer cells, c-MET overexpressing; 48 hours.
Type: cell-based, human
Method: (§1) In order to assess the resolution of the compound of the present invention for c-MET expressed in cells, cells were dispensed in a 12-well plate at a concentration of 2×10^5 cells/well, and then gastric cancer cell lines were treated with samples for 24 hours and lung cancer cell lines were treated for 48 hours. Cell lysates were collected using a scraper on ice, centrifuged at 4° C. 15,000 rpm for 30 min to obtain a protein-containing supernatant. Protein expression was then measured using the Simple Western Automated Western Blot System Abby instrument using 3 μg of protein for each sample. SDS and heat-induced denaturation proteins were separated by molecular weight, attached to capillary, reacted with anti-c-MET or anti-GAPDH antibodies, which are primary antibodies, and then reacted with HRP-conjugated secondary antibodies, and analyzed the protein expression signal with compass software. Protein expression was normalized based on the expression value of GAPDH, and protein development in each sample was measured as a percentage (%) based on 100% of samples treated with 0.1% DMSO carriers, and DC50 (concentration of a compound where 50% protein inhibition is achieved) was calculated from the change in protein expression amount due to compound treatment.

Row | Structure (SMILES) | DC50
1 | N#Cc1cccc(-c2ccc(=O)n(Cc3cccc(-c4ncc(OCC5CCN(CC(=O)N6CCN(CC7CCN(c8ccc(NC9CCC(=O)NC9=O)cc8F)CC7)CC6)CC5)cn4)c3)n2)c1 (stereo not drawn) [ICT-0001468, 3-(1-{[3-(5-{[1-(2-{4-[(1-{4-[(2,6-dioxopiperidin-3-yl)amino]-2-fluorophenyl}piperidine-4-yl)methyl]piperazine-1-yl}-2-oxoethyl)piperidine-4-yl]methoxy}pyrimidine-2-yl)phenyl]methyl}-6-oxo-1,6-dihydropyridazine-3-yl)benzonitrile] | < 100 nM
2 | N#Cc1cccc(-c2ccc(=O)n(Cc3cccc(-c4ncc(OCC5CCN(CC(=O)N6CCC(CN7CCN(c8ccc(NC9CCC(=O)NC9=O)cc8F)CC7)CC6)CC5)cn4)c3)n2)c1 (stereo not drawn) [ICT-0001447, 3-(1-{[3-(5-{[1-(2-{4-[(4-{4-[(2,6-dioxopiperidin-3-yl)amino]-2-fluorophenyl}piperazine-1-yl)methyl]piperidine-1-yl}-2-oxoethyl)piperidine-4-yl]methoxy}pyrimidine-2-yl)phenyl]methyl}-6-oxo-1,6-dihydropyridazine-3-yl)benzonitrile] | < 100 nM

What follows are compounds tested on c-MET (assay: c-MET protein degradation (Simple Western), MKN-45 cells). Details: MKN-45 gastric cancer cells, c-MET overexpressing; 24 hours.
Type: cell-based, human
Method: as §1

Row | Structure (SMILES) | DC50
3 | N#Cc1cccc(-c2ccc(=O)n(Cc3cccc(-c4ncc(OCC5CCN(CCC(=O)N6CCN(c7ccc8c(=O)n(C9CCC(=O)NC9=O)ncc8c7)CC6)CC5)cn4)c3)n2)c1 (stereo not drawn) [ICT-0001223] | < 100 nM
4 | Cn1cc(-c2cnc3c(nnn3C[C@@H]3CN(c4ncc(-c5ccc(CN6CCN(C(=O)CCCCNc7cccc8cnn(C9CCC(=O)NC9=O)c(=O)c78)CC6)cc5)cn4)CCO3)n2)cn1 (stereo partly drawn) [ICT-0000959, 3-{8-[(5-{4-[(4-{2-[(2S)-2-{[5-(1-methyl-1H-pyrazole-4-yl)-1H-[1,2,3]triazolo[4,5-b]pyrazine-1-yl]methyl}morpholine-4-il]pyrimidine-5-yl}phenyl)methyl]piperazine-1-yl}-5-oxopentyl)amino]-1-oxo-1,2-dihydropthalazine-2-yl}piperidine-2,6-dione] | < 100 nM
5 | Cc1nn(C2CCC(=O)NC2=O)c(=O)c2ccc(N3CCN(C4CCN(C(=O)CN5CCC(COc6cnc(-c7cccc(Cn8nc(-c9cccc(C#N)c9)ccc8=O)c7)nc6)CC5)CC4)CC3)cc12 (stereo not drawn) [ICT-0001237] | < 100 nM
6 | Cc1nn(C2CCC(=O)NC2=O)c(=O)c2cc(N3CCC(N4CCN(C(=O)CN5CCC(COc6cnc(-c7cccc(Cn8nc(-c9cccc(C#N)c9)ccc8=O)c7)nc6)CC5)CC4)CC3)ccc12 (stereo not drawn) [ICT-0001233] | < 100 nM
7 | Cn1cc(-c2cnc3c(nnn3C[C@@H]3CN(c4ncc(-c5ccc(CN6CCN(C(=O)CCCCCNc7ccc8c(=O)n(C9CCC(=O)NC9=O)ncc8c7)CC6)cc5)cn4)CCO3)n2)cn1 (stereo partly drawn) [ICT-0000923, 3-{6-[(6-{4-[(4-{2-[(2S)-2-{[5-(1-methyl-1H-pyrazole-4-yl)-1H-[1,2,3]triazolo[4,5-b]pyrazine-1-yl]methyl}morpholine-4-day]pyrimidine-5-yl}phenyl)methyl]piperazine-1-yl}-6-oxohexyl)amino]-1-oxo-1,2-dihydrophthalazine-2-yl}piperidine-2,6-dione] | < 100 nM
8 | Cc1nn(C2CCC(=O)NC2=O)c(=O)c2cc(N3CCN(C(=O)CN4CCC(COc5cnc(-c6cccc(Cn7nc(-c8cccc(C#N)c8)ccc7=O)c6)nc5)CC4)CC3)ccc12 (stereo not drawn) [ICT-0001115, 3-(1-(3-(5-((1-(2-(4-(3-(2,6-dioxopiperidin-3-yl)-1-methyl-4-oxo-3,4-dihydropetalazine-6-yl)piperazine-1-yl)2-oxoethyl)piperidine-4-il)methoxy)pyrimidine-2-yl)benzyl)6-oxo-1,6-dihydropyridazine-3-yl)benzonitrile] | < 100 nM
9 | N#Cc1cccc(-c2ccc(=O)n(Cc3cccc(-c4ncc(OCC5CCN(C(=O)CCCCCNc6ccc7c(=O)n(C8CCC(=O)NC8=O)ncc7c6)CC5)cn4)c3)n2)c1 (stereo not drawn) [ICT-0000984, 3-(1-{[3-(5-{[1-(6-{[2-(2,6-dioxopiperidin-3-yl)-1-oxo-1,2-dihydroptalazine-6-yl]amino}hexanoyl)piperidine-4-il]methoxy}pyrimidine-2-yl)phenyl]methyl}-6-oxo-1,6-dihydropyridazine-3-yl)benzonitrile] | 100 to 1000 nM
